Test results as given in PubChem BioAssay (NCI).
“And” between values parts separate entries of the source, which are not always exact repeats. Equal values may be shown once.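 Cultured in 96-well plates, cells were exposed to test compound for 48 hours across five concentrations. GI50: concentration for 50% inhibition of growth. TGI: total growth inhibition.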

Key:
Experiment in all cases: DTP human tumour cell line panel, 48 h
DMS 114 small cell lung = test system: DMS 114 small cell lung
KM12 colon = test system: KM12 colon
MOLT-4 leukemia = test system: MOLT-4 leukemia
OVCAR-3 ovarian = test system: OVCAR-3 ovarian
SF-268 CNS = test system: SF-268 CNS
SNB-78 CNS = test system: SNB-78 CNS
SW-620 colon = test system: SW-620 colon
UACC-62 melanoma = test system: UACC-62 melanoma
DU-145 prostate = test system: DU-145 prostate
SK-MEL-2 melanoma = test system: SK-MEL-2 melanoma

Row | Compound | TGI (DMS 114 small cell lung) [µM] | TGI (KM12 colon) [µM] | TGI (MOLT-4 leukemia) | TGI (OVCAR-3 ovarian) | TGI (SF-268 CNS) | TGI (SNB-78 CNS) [µM] | TGI (SW-620 colon) [µM] | TGI (UACC-62 melanoma) | GI50 (DU-145 prostate) | TGI (DU-145 prostate) [µM] | GI50 (KM12 colon) | GI50 (MOLT-4 leukemia) | GI50 (OVCAR-3 ovarian) | GI50 (SF-268 CNS) | GI50 (SK-MEL-2 melanoma) | TGI (SK-MEL-2 melanoma) | GI50 (SW-620 colon) | GI50 (UACC-62 melanoma) | GI50 (DMS 114 small cell lung)
1 | CCOC(=O)c1cc2c(cn1)[nH]c1cccc(N)c12 | > 100 | > 100 | > 100 µM | > 100 µM | > 100 µM | > 100 | > 100 | > 100 µM | – | – | – | – | – | – | – | – | – | – | –
2 | Oc1ccc2ccccc2c1C1NN=C(c2ccccc2)S1 (centres undefined) | – | 32.9 | > 56.9 µM | 11.8 µM | 29.1 µM | – | > 100 | 6.3 µM | 479 nM | 37.2 | 0.409 µM | 467 nM | 0.443 µM | 0.418 µM | 0.41 µM | 14.9 µM | 0.806 µM | 362 nM | –
3 | CC1(C)CCC[C@]2(C)c3cc(O)ccc3CC[C@@H]12 | – | 31.2 | 67.3 µM | 34.3 µM | 33.4 µM | – | 29 | 25.8 µM | 16400 nM | 30.6 | 14.1 µM | 11700 nM | 17 µM | 16.4 µM | 20.1 µM | 43 µM | 13.8 µM | 13100 nM | –
4 | CCOc1ccc2nc(-c3cccc(OCC(=O)NC(C)C)c3)nc(Nc3ccc(-c4cn[nH]c4)cc3)c2c1 | – | 6.9 | > 31.9 µM | 3.12 µM | 7 µM | – | 5.99 | 4.16 µM | 403 nM | 2.91 | 0.527 µM | 319 nM | 1.34 µM | 1.35 µM | 1.56 µM | 5.31 µM | 1.35 µM | 1210 nM | –
5 | Nc1nc(NC2C=C(CO)C(O)C2O)c([N+](=O)[O-])c(=O)[nH]1 (centres undefined) | > 100 | > 100 | > 100 µM | > 100 µM | > 100 µM | > 100 | > 100 | > 100 µM | – | – | – | – | – | – | – | > 100 µM | – | – | –
6 | COc1ccc([I+]c2ccccc2)cc1 | – | > 100 | > 100 µM | > 100 µM | > 100 µM | – | > 100 | > 100 µM | 23000 nM | > 100 | 4.27 µM | 7590 nM | 8.86 µM | 6.3 µM | 51.4 µM | > 100 µM | 3.37 µM | 37200 nM | –
7 | O=C1NC(=O)C(c2ccc(Cl)cc2)=C1Nc1ccc(Cl)c(C(=O)O)c1 | – | > 25 | > 25 µM | > 25 µM | > 25 µM | – | > 25 | > 25 µM | > 25000 nM | > 25 | > 25 µM | > 25000 nM | > 25 µM | > 25 µM | > 25 µM | > 25 µM | > 25 µM | > 25000 nM | –
8 | CCCCN=C(NC#N)N(Cc1ccccc1)Cc1ccccc1 | – | > 100 | 48.5 µM | 64.8 µM | > 100 µM | > 100 | 30.4 | 34.8 µM | – | – | – | – | – | – | – | 36.8 µM | – | – | –
9 | CC(C)(O)[C@@H]1CC[C@@]2(C)CCC[C@H](O)[C@H]2C1 | > 100 | > 100 | > 100 µM | > 100 µM | > 100 µM | – | > 100 | > 100 µM | – | – | – | – | – | – | – | > 100 µM | – | – | –
10 | O=C1C(Cl)=C(Nc2cccc(O)c2)C(=O)N1Cc1ccc(Cl)cc1 | – | 11.3 | > 100 µM | 5.86 µM | 18.6 µM | – | 24.8 | 4.79 µM | 5480 nM | 24.1 | 2.11 µM | 1350 nM | 1.43 µM | 4.26 µM | 1.83 µM | 9.36 µM | 2.56 µM | 1270 nM | –
11 | O=C(O)c1ccc2c3c(ncnc13)-c1ccccc1C2=O | – | > 100 | > 100 µM | > 100 µM | > 100 µM | – | > 100 | 6.11 µM | 1460 nM | 2.83 | 7 µM | > 100000 nM | 31.2 µM | 37.1 µM | 20.7 µM | > 100 µM | 4.78 µM | 2440 nM | –
12 | COc1ccc2nc(NCN3C(=O)c4ccccc4C3=O)sc2c1 | – | > 100 | > 100 µM | > 100 µM | > 100 µM | – | > 100 | > 100 µM | – | > 100 | – | – | – | – | – | > 100 µM | – | – | –
13 | Fc1cccc(CSc2ncnc3c2ncn3C2CCCS2)c1 (centres undefined) | – | 38.9 | 24 µM | 35.6 µM | > 100 µM | – | > 100 | 28.8 µM | – | 50.4 | – | – | – | – | – | 40.3 µM | – | – | –
14 | NC(=S)N/N=C/c1ccc(O)cn1 | – | > 1500 | – | > 1500 µM and 240 µM | – | – | > 1500 | 10.7 µM and 13.1 µM and 37.3 µM | – | 314 | 35 µM | 6500 nM and 3190 nM and 1360 nM | 19.9 µM and 5.16 µM | 5.55 µM and 3.43 µM | 12.5 µM and 6.35 µM and 57.8 µM | – | 27.4 µM and 13.2 µM | 2830 nM and 3130 nM and 1830 nM | 3780 nM and 1040 nM and 2040 nM
15 | CN1CCC(C(=O)Nc2n[nH]c3nc(-c4ccc(O)cc4)c(Br)cc23)CC1 | – | > 25 | > 25 µM and 18.9 µM | > 11.6 µM and 1.44 µM | 9.27 µM and 4.68 µM | – | > 25 | 6.87 µM and 8.81 µM | 1690 nM and 1180 nM | > 25 | 1.82 µM and 1.49 µM | 1880 nM and 1510 nM | 0.815 µM and 0.504 µM | 1.14 µM and 0.863 µM | 0.692 µM and 1.66 µM | 2.32 µM and 5.75 µM | 0.975 µM and 0.254 µM | 2850 nM and 3830 nM | –
16 | c1cncc(-c2nc3ccccc3s2)c1 | – | > 100 | > 100 µM | > 100 µM | > 100 µM | – | > 100 | > 100 µM | > 100000 nM | > 100 | > 100 µM | 73700 nM | > 100 µM | > 100 µM | > 100 µM | > 100 µM | > 100 µM | > 100000 nM | –
17 | Cc1cc(Oc2cnc(=O)[nH]c2)cs1 | – | > 100 | > 100 µM | > 100 µM | > 100 µM | – | > 100 | > 100 µM | – | > 100 | – | – | – | – | – | > 100 µM | – | – | –
